Reference: patent US20140023611A1 (priority 2010, published 2014)

How the values were obtained:
human NaP2b (SLC34A2) = target: T1, human NaP2b (SLC34A2) (Homo sapiens, UniProt O95436); test: Inhibition of NaP2b-mediated Pi (33P) uptake in transfected HEK293 cells, human NaP2b; format: cell-based; details: read-out: pIC50 range for human NaP2b (converted)
T1 construct: host or cells: HEK293
T1 sequence (O95436 1-690): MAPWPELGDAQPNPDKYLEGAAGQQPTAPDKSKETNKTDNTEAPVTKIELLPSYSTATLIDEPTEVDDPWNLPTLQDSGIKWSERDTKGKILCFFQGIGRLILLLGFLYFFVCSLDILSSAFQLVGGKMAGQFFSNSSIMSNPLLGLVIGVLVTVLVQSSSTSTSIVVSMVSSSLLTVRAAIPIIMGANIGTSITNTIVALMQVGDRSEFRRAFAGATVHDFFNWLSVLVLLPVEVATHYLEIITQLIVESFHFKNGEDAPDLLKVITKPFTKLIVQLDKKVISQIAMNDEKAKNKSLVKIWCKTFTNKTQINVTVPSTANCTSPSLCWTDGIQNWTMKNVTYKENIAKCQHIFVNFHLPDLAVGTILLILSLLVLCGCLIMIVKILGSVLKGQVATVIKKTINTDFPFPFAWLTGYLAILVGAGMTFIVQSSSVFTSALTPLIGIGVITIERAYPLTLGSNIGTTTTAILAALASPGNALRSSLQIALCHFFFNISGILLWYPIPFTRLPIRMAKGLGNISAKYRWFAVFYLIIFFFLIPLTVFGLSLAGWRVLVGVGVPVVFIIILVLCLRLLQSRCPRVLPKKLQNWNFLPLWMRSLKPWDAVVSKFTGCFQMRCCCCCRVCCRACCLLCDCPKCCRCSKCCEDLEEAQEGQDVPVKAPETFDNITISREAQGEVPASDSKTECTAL
Outline: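 Uptake of 33P-phosphate (100 uM KH2PO4 carrier, sodium vs choline buffer, pH 7.4) measured after 3-30 min at room temperature, with test compound at twelve concentrations from 0.1 nM to 30 uM in duplicate. Cells were HEK293 transfected with mutated human NaP2b (Thr insertion after 37, N39D) and treated with a PiT-silencing agent. pIC50 values from scintillation counts.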

[1] = Stability of compounds in simulated gastric fluid (SGF); format: in vitro ADME; details: simulated gastric fluid (3 mg/mL pepsin), incubation time 6 hr, relative to t=0
Outline: (§1)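 Compounds at […] were incubated 3 or 6 hr in USP simulated gastric fluid with 3 mg/mL pepsin or simulated intestinal fluid with 3 mg/mL pancreatin. Remaining compound was quantified by HPLC-UV or HPLC-MS peak area % and reported as percent of the t=0 level in the same medium.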

[2] = Stability of compounds in simulated intestinal fluid (SIF); format: in vitro ADME; details: simulated intestinal fluid (3 mg/mL pancreatin), incubation time 6 hr, relative to t=0
Outline: as §1

rat NaP2b (SLC34A2) = target: T2, rat NaP2b (SLC34A2) (Rattus norvegicus, UniProt Q9JJ09); test: Inhibition of NaP2b-mediated Pi (33P) uptake in transfected HEK293 cells, rat NaP2b; format: cell-based; details: 33P Pi uptake, 0.1 mM phosphate, value given as pIC50 range
T2 construct: host or cells: HEK293
T2 sequence (Q9JJ09 1-695): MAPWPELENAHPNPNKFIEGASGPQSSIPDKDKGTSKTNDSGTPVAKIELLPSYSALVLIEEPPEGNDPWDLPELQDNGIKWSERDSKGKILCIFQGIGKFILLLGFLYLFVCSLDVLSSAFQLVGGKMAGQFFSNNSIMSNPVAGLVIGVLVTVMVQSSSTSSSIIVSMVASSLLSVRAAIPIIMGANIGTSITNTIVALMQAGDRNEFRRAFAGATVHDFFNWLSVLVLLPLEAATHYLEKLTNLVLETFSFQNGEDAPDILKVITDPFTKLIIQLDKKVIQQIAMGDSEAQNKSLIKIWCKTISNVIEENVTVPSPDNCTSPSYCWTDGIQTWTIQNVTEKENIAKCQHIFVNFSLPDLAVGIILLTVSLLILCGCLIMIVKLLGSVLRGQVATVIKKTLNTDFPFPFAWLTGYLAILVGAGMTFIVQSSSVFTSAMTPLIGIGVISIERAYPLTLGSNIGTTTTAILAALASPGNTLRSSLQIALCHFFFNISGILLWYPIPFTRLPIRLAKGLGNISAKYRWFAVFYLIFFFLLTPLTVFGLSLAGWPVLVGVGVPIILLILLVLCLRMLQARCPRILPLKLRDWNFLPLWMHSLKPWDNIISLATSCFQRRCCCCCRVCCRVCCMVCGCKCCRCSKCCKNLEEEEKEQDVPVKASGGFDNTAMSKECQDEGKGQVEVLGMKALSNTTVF
Outline: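 The cells transiently expressed NaP2b after Lipofectamine transfection. Each compound was run in duplicate over twelve concentrations, 0.1 nM–30 uM.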

[3] = system: Uptake of Phosphorus from the Intestine; test: In vivo co-dosing in chow (urine P out / P consumed); details: Rattus norvegicus, feed or water, rats, compound in chow, read-out: Mean % inhibition Urine Pout/P consumed; for inhibition in vivo at 100 mg/kg/day: mean drug dose 100 mg/kg/day
Description: Male, 7-week-old Sprague-Dawley rats (Charles-River laboratories international, Hollister, Calif.) were allowed to acclimate for a minimum of 3 days. The experiment was initiated by switching animals to a synthetic diet (0.6% phosphorus and 0.6% calcium, Harlan Teklad TD.84122) for four days. After this time, the animals were placed into metabolic cages for daily monitoring of food and water consumption, as well as urine and fecal collections. Test compounds were incorporated into the powdered diet listed above containing 3% chocolate flavoring (w/w, BioServ #7345) at 1.3 mg test compound per gram of diet to achieve an average daily nominal dose of 100 mg/kg/day. The actual dose received by each animal was later determined by measuring prepared diet consumption and body weight. Urine samples were collected in three daily periods from 24-48, 48-72, and 72-96 hours of drug dosing. Averaging these three 24 h periods allows for the more representative measurements of urination, fecal excretion, food consumption and water uptake for each animal. Phosphorus levels in the urine were determined by anion exchange chromatography using a Dionex ICS-3000 ion chromatography system. Urine samples were diluted 1:500 or 1:1000 and injected onto an IonPac AS18 analytical column (2×250 mm) using a potassium hydroxide eluent. Elution of urine phosphate ions was monitored via conductivity detector and reported as ppm relative to a standard ion solution containing phosphate. Daily urinary P output relative to the P consumed in the prepared diet for each animal was calculated. The percentage inhibition of phosphorus absorption was estimated by determining the reduction of this ratio compared to the control group (animals with no drug in chow). The differences between the means of control and treated groups were evaluated by t tests. In all experiments, one group was always included that had Renvela powder blended into their chow at 0.9% targeting a dose of 750 mg/kg.

[4] = Determination of compound Cmax and AUC after oral gavage (plasma LC-MS/MS); format: in vivo, Sprague-Dawley rats; details: Sprague-Dawley, rat, plasma, po, Structure (I) examples
Outline: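 Plasma exposure measured by LC-MS/MS after acetonitrile precipitation with internal standard, quantified against a standard curve made in plasma. Compound given orally by gavage to Sprague-Dawley rats at nominal 2.5 or 10 mg/kg, with K2EDTA plasma sampled at 0.5, 1, 2 and 4 h.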

[5] = Table 15, actual oral dose 3-15 mg/kg, plasma 0.5-4 h
[6] = Table 15, actual oral dose 15-40 mg/kg, plasma 0.5-4 h

SMILES | IC50 (human NaP2b (SLC34A2)) [nM] | % remaining, SGF [1] | % remaining, SIF [2] [%] | IC50 (rat NaP2b (SLC34A2)) [nM] | inhibition in vivo at 100 mg/kg/day [3] [%] | AUC [4, 5] [ng·h/mL] | Cmax [4, 5] [ng/mL] | inhibition in vivo at 74 mg/kg/day ([3]; mean drug dose 74 mg/kg/day) [%] | AUC [4, 6] [ng·h/mL] | Cmax ([4]; Table 15, plasma 0.5-4 h) [ng/mL] | inhibition in vivo at 130 mg/kg/day ([3]; mean drug dose 130 mg/kg/day) [%]
CCN(CC)c1ccc(NC(=O)c2cccc(C(=O)N(C)CCN3CCC[C@H]3C(=O)NCCOCCOCCOCCOCCOCCOCCOCCOC)c2)c(-c2cc(C(=O)NCc3cccc(C(F)(F)F)c3)ccn2)c1 [Example 203, (S)—N^1-(2-(2-(2,5,8,11,14,17,20,23-octaoxapentacosan-25-ylcarbamoyl)pyrrolidin-1-yl)ethyl)-N^3-(4-(diethylamino)-2-(4-((3-(trifluoromethyl)benzyl)carbamoyl)pyridin-2-yl)phenyl)-N^1-methylisophthalamide] | 1000 to 7940 | >80% | >80 | 1000 to 7940 | ≤ 10 |  |  |  |  |  | 
CCN(CC)c1ccc(NC(=O)c2cccc(C(=O)N(C)CCN3CCOCC3)c2)c(-c2cc(C(=O)NCc3cccc(C(F)(F)F)c3)ccn2)c1 [Example 25] |  |  |  |  |  | < 30 | < 30 | 10 to 30 |  |  | 
CCN(CC)c1ccc(NC(=O)c2cccc(C(=O)N(C)CCN(C)CCOCCOCCOCCNC(=O)OC(C)(C)C)c2)c(-c2cc(C(=O)N[C@H]3CCCc4ccccc43)ccn2)c1 [Example 339, (S)-tert-Butyl 1-(3-(4-(diethylamino)-2-(4-(1,2,3,4-tetrahydronaphthalen-1-ylcarbamoyl)pyridin-2-yl)phenylcarbamoyl)phenyl)-2,5-dimethyl-1-oxo-8,11,14-trioxa-2,5-diazahexadecan-16-ylcarbamate] | < 1000 | <20% | >80 | < 1000 |  | < 30 | < 10 |  |  |  | 
CN(CCOCCOCCOCCC(=O)O)C(=O)Cc1cccc(SCc2cccc(C(=O)Nc3ccc(Cl)cc3-c3cc(C(=O)N[C@H]4CCCc5ccccc54)ccn3)c2)c1 [Example 239, (S)-1-(3-(3-(4-chloro-2-(4-(1,2,3,4-tetrahydronaphthalen-1-ylcarbamoyl)pyridin-2-yl)phenylcarbamoyl)benzylthio)phenyl)-3-methyl-2-oxo-6,9,12-trioxa-3-azapentadecan-15-oic acid] | < 1000 | 60-80% | >80 | < 1000 |  |  |  |  | < 30 | < 30 | 
CCN(CC)c1ccc(NC(=O)c2cccc(C(=O)N(C)CCN3CCC[C@H]3C(=O)NCCOCCOCCOCCOCCOCCOCCOCCOC)c2)c(-c2cc(C(=O)N[C@H]3CCCc4ccccc43)ccn2)c1 [Example 196, N^1-(2-((S)-2-(2,5,8,11,14,17,20,23-octaoxapentacosan-25-ylcarbamoyl)pyrrolidin-1-yl)ethyl)-N^3-(4-(diethylamino)-2-(4-(((S)-1,2,3,4-tetrahydronaphthalen-1-yl)carbamoyl)pyridin-2-yl)phenyl)-N-methylisophthalamide] | 1000 to 7940 | >80% | >80 | 1000 to 7940 |  | > 50 | > 50 |  |  |  | 
CN(CCOCCOCCOCCC(=O)O)C(=O)c1cccc(C(=O)Nc2ccc(Cl)cc2-c2cc(C(=O)N[C@H]3CCCc4ccccc43)ccn2)c1 [Example 237, (S)-1-(3-(4-chloro-2-(4-(1,2,3,4-tetrahydronaphthalen-1-ylcarbamoyl)pyridin-2-yl)phenylcarbamoyl)phenyl)-2-methyl-1-oxo-5,8,11-trioxa-2-azatetradecan-14-oic acid] |  | >80% | >80 | 1000 to 7940 |  |  |  |  |  |  | ≤ 10
CCN(CC)c1ccc(NC(=O)c2cccc(C(=O)N(C)CCN3CCN(CCOCCOCCOCCOCCOCCOCCOC)C(=O)C3)c2)c(-c2cc(C(=O)N[C@H]3CCCc4ccccc43)ccn2)c1 [Example 327, (S)—N1-(2-(4-(2,5,8,11,14,17,20-heptaoxadocosan-22-yl)-3-oxopiperazin-1-yl)ethyl)-N3-(4-(diethylamino)-2-(4-(1,2,3,4-tetrahydronaphthalen-1-ylcarbamoyl)pyridin-2-yl)phenyl)-N1-methylisophthalamide] |  | >80% | >80 | 1000 to 7940 | 10 to 30 | < 10 | < 10 |  |  |  | 
O=C(O)CCOCCOCCOCCOCCCc1cccc(C(=O)Nc2ccc(Cl)cc2-c2cc(C(=O)N[C@H]3CCCc4ccccc43)ccn2)c1 [Example 253, (S)-16-(3-(4-(chloro)-2-(4-(1,2,3,4-tetrahydronaphthalen-1-ylcarbamoyl)pyridin-2-yl)phenylcarbamoyl)phenyl)-4,7,10,13-tetraoxahexadecan-1-oic acid] | < 1000 | 60-80% | >80 | < 1000 |  |  |  |  | < 10 | < 10 | 
